# From patent US20250099634A1, “METHOD OF TREATING CANCER” (Novartis AG, priority 2023, published 2025)
# Columns and labels:
# [1] = NETTER-2 serious adverse events in the randomized treatment period (Safety Set)
# Excerpt: All adverse events (AEs), whether or not spontaneously reported by the patient, will be recorded starting from the signing of the ICF until the end of the Treatment Phase. Safety summaries (tables, figures) include only data from the on-treatment period with the exception of baseline data which will also be summarized where appropriate (e.g. change from baseline summaries). In addition, a separate summary for death including on treatment and post treatment deaths will be provided. In particular, summary tables for adverse events (AEs) will summarize only on-treatment events, with a start date during the on-treatment period (treatment-emergent AEs).
# Separate summaries will be provided for study medication related adverse events, death, serious adverse events, other significant adverse events leading to discontinuation and adverse events leading to dose adjustment.
# [2] = NETTER-1 control arm, high dose (60 mg); cited from earlier work
# [3] = NETTER-2 subject disposition: discontinuation of randomized treatment phase (Full Analysis Set); type: in vivo, human
# Excerpt: The discontinuation of either study treatments in both arms (Lutathera or octreotide long-acting) is not a reason for patient's withdrawal either from the clinical/tumor assessments until tumor progression, or for early study termination. However, in case of a patient's withdrawal from the clinical/tumor assessments or early study termination (based on either the patient's or the Investigator's decision), patients will undergo all exams scheduled for the End of Treatment (EOT) visit.
# The Full Analysis Set (FAS) comprises all subjects to whom study treatment has been assigned by randomization. According to the intent to treat principle, subjects will be analyzed according to the treatment and strata they have been assigned to during the randomization procedure.
# [4] = test system: Grade 2 and Grade 3 advanced GEP-NET; experiment: NETTER-2 Progression-Free Survival (PFS), central review using RECIST 1.1; type: in vivo, human; conditions: Full Analysis Set; for Kaplan-Meier event-free estimates (95% CI): PFS
# Procedure: The primary efficacy end-point is PFS as measured by objective tumor response, which is determined by RECIST criteria, Version 1.1 (Eisenhauer, et al., 2009). Tumor response will be assessed locally and centrally.
# It is recommended that for each patient identical acquisition and reconstruction protocols be used at all time-points. Central, blinded, real-time IRC (Independent Review Committee) assessment will be conducted for determining progressive disease. Changes from randomization date will be assessed at week 16±1, week 24±1 and then every 12±1 weeks until the PFS primary analysis End-Point has been reached, then until Week 72 after randomization, unless the patient progresses or dies.
# The primary endpoint of the study is progression-free survival (PFS), defined as the time from the date of randomization to the date of the first documented progression or death due to any cause. PFS will be assessed via central review according to RECIST 1.1.
# The stratification will be based on following randomization stratification factors (grade: G2 vs. G3; and tumor origin: pNET vs other origin).
# Analyses will be based on the FAS population according to the randomized treatment group and strata assigned at randomization. The PFS distribution will be estimated using the Kaplan-Meier method, and Kaplan-Meier curves, median and associated 95% confidence intervals will be presented for each treatment group. The hazard ratio for PFS will be calculated, along with its 95% confidence interval, from a stratified Cox model using the same stratification factors as for the log-rank test.
# [5] = All grades, randomized treatment period, Safety Set
# [6] = Grade >=3, randomized treatment period, Safety Set
# [7] = randomized treatment period, Safety Set
smiles,measurement,setting,value
"C[C@@H](O)[C@@H]1NC(=O)[C@H](CCCCN)NC(=O)[C@@H](Cc2c[nH]c3ccccc23)NC(=O)[C@H](Cc2ccccc2)NC(=O)[C@@H](NC(=O)[C@H](N)Cc2ccccc2)CSSC[C@@H](C(=O)N[C@H](CO)[C@@H](C)O)NC1=O [Octreotide LAR, octreotide]",Fatal SAEs,[1]; [5],2 (2.7) n (%)
same,Fatal SAEs Related to Any Treatment,[1]; [5],0 n (%)
same,Fatal SAEs Related to Octreotide,[1]; [5],0 n (%)
same,SAEs Related to Any Treatment,[1]; [5],1 (1.4) n (%)
same,SAEs Related to Octreotide,[1]; [5],1 (1.4) n (%)
same,Serious adverse event: Abdominal pain,[1]; [5],0 n (%)
same,Serious adverse event: Abdominal sepsis,[1]; [5],1 (1.4) n (%)
same,Serious adverse event: Acute coronary syndrome,[1]; [5],1 (1.4) n (%)
same,Serious adverse event: Acute kidney injury,[1]; [5],1 (1.4) n (%)
same,Serious adverse event: Anaemia,[1]; [5],1 (1.4) n (%)
same,Serious adverse event: Ascites,[1]; [5],1 (1.4) n (%)
same,Serious adverse event: Blood bilirubin increased,[1]; [5],1 (1.4) n (%)
same,Serious adverse event: Carcinoid heart disease,[1]; [5],1 (1.4) n (%)
same,Serious adverse event: Carcinoid syndrome,[1]; [5],1 (1.4) n (%)
same,Serious adverse event: Diarrhoea,[1]; [5],1 (1.4) n (%)
same,Serious adverse event: Femur fracture,[1]; [5],1 (1.4) n (%)
same,Serious adverse event: Gastroenteritis,[1]; [5],1 (1.4) n (%)
same,Serious adverse event: Gastrointestinal stoma complication,[1]; [5],0 n (%)
same,Serious adverse event: Generalised oedema,[1]; [5],1 (1.4) n (%)
same,Serious adverse event: Hip fracture,[1]; [5],1 (1.4) n (%)
same,Serious adverse event: Hyperglycaemia,[1]; [5],1 (1.4) n (%)
same,Serious adverse event: Hypertension,[1]; [5],1 (1.4) n (%)
same,Serious adverse event: Hypoalbuminaemia,[1]; [5],1 (1.4) n (%)
same,Serious adverse event: Intestinal obstruction,[1]; [5],1 (1.4) n (%)
same,Serious adverse event: Jaundice,[1]; [5],1 (1.4) n (%)
same,Serious adverse event: Lower gastrointestinal haemorrhage,[1]; [5],1 (1.4) n (%)
same,Serious adverse event: Metabolic encephalopathy,[1]; [5],1 (1.4) n (%)
same,Serious adverse event: Oedema peripheral,[1]; [5],1 (1.4) n (%)
same,Serious adverse event: Pleurisy,[1]; [5],1 (1.4) n (%)
same,Serious adverse event: Pyrexia,[1]; [5],0 n (%)
same,Serious adverse event: Small intestinal obstruction,[1]; [5],0 n (%)
same,Serious adverse event: Tumour lysis syndrome,[1]; [5],1 (1.4) n (%)
same,Fatal SAEs,[1]; [6],2 (2.7) n (%)
same,Fatal SAEs Related to Any Treatment,[1]; [6],0 n (%)
same,Fatal SAEs Related to Octreotide,[1]; [6],0 n (%)
same,SAEs Related to Any Treatment,[1]; [6],1 (1.4) n (%)
same,SAEs Related to Octreotide,[1]; [6],1 (1.4) n (%)
same,Serious adverse event: Abdominal pain,[1]; [6],0 n (%)
same,Serious adverse event: Abdominal sepsis,[1]; [6],1 (1.4) n (%)
same,Serious adverse event: Acute coronary syndrome,[1]; [6],0 n (%)
same,Serious adverse event: Acute kidney injury,[1]; [6],1 (1.4) n (%)
same,Serious adverse event: Anaemia,[1]; [6],1 (1.4) n (%)
same,Serious adverse event: Ascites,[1]; [6],1 (1.4) n (%)
same,Serious adverse event: Blood bilirubin increased,[1]; [6],1 (1.4) n (%)
same,Serious adverse event: Carcinoid heart disease,[1]; [6],1 (1.4) n (%)
same,Serious adverse event: Carcinoid syndrome,[1]; [6],1 (1.4) n (%)
same,Serious adverse event: Diarrhoea,[1]; [6],1 (1.4) n (%)
same,Serious adverse event: Femur fracture,[1]; [6],0 n (%)
same,Serious adverse event: Gastroenteritis,[1]; [6],1 (1.4) n (%)
same,Serious adverse event: Gastrointestinal stoma complication,[1]; [6],0 n (%)
same,Serious adverse event: Generalised oedema,[1]; [6],1 (1.4) n (%)
same,Serious adverse event: Hip fracture,[1]; [6],1 (1.4) n (%)
same,Serious adverse event: Hyperglycaemia,[1]; [6],1 (1.4) n (%)
same,Serious adverse event: Hypertension,[1]; [6],1 (1.4) n (%)
same,Serious adverse event: Hypoalbuminaemia,[1]; [6],1 (1.4) n (%)
same,Serious adverse event: Intestinal obstruction,[1]; [6],1 (1.4) n (%)
same,Serious adverse event: Jaundice,[1]; [6],1 (1.4) n (%)
same,Serious adverse event: Lower gastrointestinal haemorrhage,[1]; [6],1 (1.4) n (%)
same,Serious adverse event: Metabolic encephalopathy,[1]; [6],1 (1.4) n (%)
same,Serious adverse event: Oedema peripheral,[1]; [6],1 (1.4) n (%)
same,Serious adverse event: Pleurisy,[1]; [6],1 (1.4) n (%)
same,Serious adverse event: Pyrexia,[1]; [6],0 n (%)
same,Serious adverse event: Small intestinal obstruction,[1]; [6],0 n (%)
same,Serious adverse event: Tumour lysis syndrome,[1]; [6],1 (1.4) n (%)
same,Incidence of SAEs: Small intestinal obstruction,"[1]; most frequent SAE, summary table",0 (%)
same,Serious AEs,[1]; randomized treatment period,20.5%
same,"Serious AEs, Treatment-related",[1]; randomized treatment period,1.4%
same,SAE with fatal outcome: Blood bilirubin increased,[1]; [7],0 n (%)
same,SAE with fatal outcome: Diarrhoea,[1]; [7],1 (1.4) n (%)
same,SAE with fatal outcome: Dyspnoea,[1]; [7],0 n (%)
same,SAE with fatal outcome: Intestinal perforation,[1]; [7],0 n (%)
same,SAE with fatal outcome: Tumor Lysis syndrome,[1]; [7],1 (1.4) n (%)
same,SAEs with fatal outcome,[1]; [7],2 (2.7) n (%)
same,SAEs with fatal outcome reported in subjects with primary reason for death = Disease under Study,[1]; [7],2 (2.7) n (%)
same,side effects,[2],without notable side effects
same,Reason for End of Randomized Treatment Phase: Adverse Event,[3]; Full Analysis Set,1 (1.3) n (%)
same,Reason for End of Randomized Treatment Phase: Death,[3]; Full Analysis Set,4 (5.3) n (%)
same,Reason for End of Randomized Treatment Phase: Progressive Disease,[3]; Full Analysis Set,44 (58.7) n (%)
same,Treatment discontinuation due to adverse event,[3]; randomized period,1.3%
same,discontinuation for progressive disease,[3]; randomized period,58.7%
same,Kaplan-Meier event-free estimates (95% CI),[4]; 4 months,"73.5 (61.2, 82.4) %"
same,Kaplan-Meier event-free estimates (95% CI),[4]; 6 months,"64.5 (51.8, 74.6) %"
same,Kaplan-Meier event-free estimates (95% CI),[4]; 9 months,"46.0 (33.4, 57.7) %"
same,Kaplan-Meier event-free estimates (95% CI),[4]; 12 months,"42.4 (30.0, 54.3) %"
same,Kaplan-Meier event-free estimates (95% CI),[4]; 15 months,"36.4 (24.3, 48.5) %"
same,Kaplan-Meier event-free estimates (95% CI),[4]; 18 months,"29.2 (17.7, 41.7) %"
same,Kaplan-Meier event-free estimates (95% CI),[4]; 24 months,"19.5 (9.1, 32.7) %"
same,PFS Events,[4],46 (61.3) n (%)
same,PFS events: Deaths,[4],5 (6.7) n (%)
same,PFS events: Progression,[4],41 (54.7) n (%)
same,Median PFS (95% CI),"[4]; central review, RECIST 1.1","8.5 (7.7, 13.8) months"
same,PFS 25th percentile (95% CI),"[4]; central review, RECIST 1.1","3.9 (3.7, 5.7) months"
same,PFS 75th percentile (95% CI),"[4]; central review, RECIST 1.1","19.3 (13.8, NE) months"
same,Median PFS (95% CI),"[4]; central review, RECIST 1.1, listed as High-dose Octreotide",8.5 months
same,Median PFS (95% CI),"[4]; central review, RECIST 1.1, listed as high-dose Octreotide","8.5 (7.7, 13.8) months"
